From patent publication US20020051760A1, “Method for screening a substance having promoting activity on hair growth” (SUMITOMO ELECTRIC INDUSTRIES, Ltd., priority 2000, published 2002)
Where no end group is shown, it is not given here.

What was measured:
[1] = test system: Hacl-1 in the hair follicles; assay: Induction of Hacl-1 expression and anagen in hair follicles of mouse back skin after subcutaneous injection; assay type: in vivo; conditions: C57BL/6 mice in telogen, 0.8 mg/ml solution, 0.1 ml subcutaneously 5 times at intervals of 24 hours
Description: (§1) A C57BL mouse (14 weeks old) was shaved on the back with clippers to confirm that the mouse had both skin areas in anagen and telogen as to the hair cycle based on colors of the skin. Each 200 mg of the skin areas in anagen and telogen was collected from the mouse and homogenized on ice for 2 minutes, and then suspended in a buffer (PBS). The supernatant was collected and subjected to SDS-polyacrylamide gel electrophoresis (SDS-PAGE). The respective hair follicles in telogen and anagen were distinguished by observing the tissue section under a microscope, and the criterion shown in FIG. 1 was applied for judgment.
Promoting activity on hair growth of the aforementioned polypeptide H1 and oligopeptide ssb7 was evaluated. C57BL/6 mice are known to have sustained telogen for about 50 days from the 45-day after birth to around the 95-day, and the hair cycle of the animal is easily judged based on the skin color changes, i.e., from pink in telogen to gray or black in anagen. […] The polypeptide H1 solution (0.8 mg/ml) or the oligopeptide ssb7 solution (0.8 mg/ml) prepared above was subcutaneously injected 5 times in the amount of 0.1 ml at intervals of 24 hours, and Hacl-1 in the hair follicles was measured with time according to the method of Example 1.

[2] = test system: Hacl-1 in the cultures (mouse beard); assay: Induction of Hacl-1 expression in cultured mouse beard; assay type: cell-based, mice; conditions: 50 μg/ml, cultivation for 5 days; the control showed only slight expression
Description: as §1
The beard on the both sides of the mice used in Example 2 was collected and cultured by the method described in Development, 105, pp. 271-277, 1989. The beard from one side was used as a control, and that from the other side was treated with the aforementioned oligopeptide ssb7 (50 μg/ml). After cultivation for 5 days, Hacl-1 in the cultures was determined according to the method of Example 1.

In the case of “ssb7: S-S bridged oligopeptide obtained by crosslinking pep7 (Ser-Ile-Glu-Gln-Ser-Cys-Asp-Gln-Asp-Glu) with BMH (SIEQSCDQDE; not fully specified; printed as Ser-Ile-Glu-Gln-Ser-Cys-Asp-Gln-Asp-Glu; also: two chains crosslinked through Cys6 by BMH (bismaleimidohexane))”, the “induction of anagen of the hair follicles” value ([1]; 20-day, judged from Hacl-1 expression) is reported as “induction of anagen”, the “Hacl-1 band in hair follicle samples (Western Blotting with antiserum against Hacl-1)” value ([1]; samples at 20-day) is reported as “clear band of Hacl-1 was observed” and the “expression of Hacl-1 in cultured beard” value [2] is reported as “expression of Hacl-1 was observed”.
